What was measured:
rat beta cells [1] = test: Beta cell DNA synthesis/proliferation by EdU (and BrdU) incorporation, incl. LOPAC screen; assay type: cell-based; conditions: for Percent EdU+ cells / Z-Score: LOPAC screen at 1 μM, adult rat beta cells, EdU day 3 to 6; for Percent EdU+ cells: control medium 5.6; for Z-Score: hit cut-off three standard deviations
Description: (§1) On day 1, 9 and 15 of culture, total numbers of living beta cells per well were determined by semi-automatic cell count, after Hoechst 33342 (Ho) and propidium iodide (PI) staining. Numbers of living beta cells were obtained by subtracting the PI-positive cell numbers from the Ho-positive cell numbers, and correcting for the percent insulin-negative cells, as determined following insulin-immunofluorescence staining. They were expressed as percent of the numbers on day 1. Each condition was also evaluated for increases in the percentage of proliferating beta cells (incorporating the thymidine-analogue 5-ethynyl-2′-deoxyuridine, EdU; 100 μmol/l). To detect beta cells that underwent two successive cycles, cells were sequentially exposed to two different thymidine-analogs, first EdU from day 3 to 6, and then BrdU (100 μmol/l) from day 7 to 10, with a 24-hour label-free period in between. EdU-positive (EdU^+) nuclei were detected with the Click-iT Assay kit (Invitrogen), while BrdU-positive (BrdU^+) nuclei were identified with anti-BrdU antibody.
Freshly purified beta cells were cultured in control medium for 24 h prior to the addition of the LOPAC test compounds (day 1). The culture medium was refreshed on day 3 and the cells were then cultured further with 5-ethynyl-2′-deoxyuridine (EdU; 10 μM) up to day 6. Cell viability and percentage EdU incorporation were quantified after imaging and image analysis using the BD Pathway Bioimager, as described before (Assefa et al., 2014). To test the significance of compound effect on beta cell proliferation, average Z-score for each compound was calculated and a cut-off for potential positive hits was set at a Z-score of greater than three standard deviations. Thus, a compound is considered a hit only if it increases the percent EdU incorporation to above three standard deviation of the plate-averaged percent EdU incorporation.
(§2) Sorted beta cells were seeded in 384-well or 6-well plates coated with 804G matrix, and kept in culture for up to 15 days at 37° C. 5% CO2 using Ham F10 supplemented with 1 mM L-glutamine, 0.1 mg/ml streptomycin, 0.075 mg/ml penicillin, 50 μM of isobutyl-1-methylxanthine (IBMX) at 10 mM D-glucose with and without synthetic GCs (6 methyl-prednisolone (6MP), dexamethasone (DEX), GR-modulators (compound A (CPA), mifepristone (MIF), and NFκB inhibitors (JSH-23 en Bay11-7085). Total cell number and beta cell viability was evaluated after incubation with Hoechst 33342 and propidium iodide. All chemicals were from Sigma Life Sciences or Merck. Quantification of cell numbers and analysis of beta-cell viability was done using the Pathway Bioimager (BD Biosciences) and using IPlab and Attovision software for background subtraction as described prior (Assefa et al., 2014). Replicating beta cells were quantified after 24 or 72 hrs incubation with 5-ethynyl-2′-deoxyuridine (EdU, a thymidine analog) using the ClickIT EDU Alexa Fluor assay (Invitrogen). EdU-positive cells were expressed as percentage of total cell number.

rat beta cells [2] = test: Number of living beta cells in culture (Hoechst 33342/propidium iodide whole-well imaging counts; expansion assay); assay type: cell-based
Description: (§3) Beta cells were FACS-purified from islet-cell enriched suspensions (Pipeleers et al., 1985) prepared from neonatal (2-3 days-old) and adolescent or adult (8 or 40-week-old, male) Wistar rats (Janvier Bioservices, France); their purity was, respectively 70-75% and over 90%. Sorted cells were counted in a hemocytometer, seeded (day 0) and cultured for up to 15 days in serum-free Ham's-F10 medium at 5, 10 or 20 mmol/l glucose, supplemented with 2 mmol/l L-glutamine, 50 μM 3-isobutyl-1-methylxanthine, 0.5% Albumax-I, penicillin (100 U/ml) and streptomycin (0.1 mg/ml). The 10 mmol/l glucose condition is known to maintain beta cell survival over 9-days (Ling et al., 1994; Ling and Pipeleers, 1994). Medium and cells were retrieved after selected culture periods and assayed for insulin content; data were expressed as a function of the number of living beta cells that was determined in parallel wells.
as §1
(§4) Absolute number of cells was determined by whole-well imaging using the BD-PathwayBioimager855 (BD-Biosciences). IPLab and AttoVision software packages (BD-Biosciences) were used for image background subtraction, segmentation and quantification.
Experimental procedures for isolation of beta cells from neonatal (2-3 days old) and adult (8 or 40 week old, male) Wistar rats (Janvier Bioservices, France) and analysis of their number, viability and proliferation activity in culture have been described before (Assefa et al., 2014). Sorted beta cells were seeded in 804G matrix-coated plates (designated as day 0) and the numbers and viability of seeded cells at the start of all experiments were determined on day 1 (24 h after seeding). The cells were cultured in control medium, which is a serum-free Ham's F10 medium supplemented with 2 mM L-glutamine, 50 μM 3-isobutyl-1-methylxanthine, 0.5% Albumax I, penicillin (100 U/ml), streptomycin (0.1 mg/ml) and, unless indicated otherwise, 10 mM glucose.
as §2, with “2014).” for “2014). Replicating beta cells were quantified after 24 or 72 hrs incubation with 5-ethynyl-2′-deoxyuridine (EdU, a thymidine analog) using the ClickIT EDU Alexa Fluor assay (Invitrogen). EdU-positive cells were expressed as percentage of total cell number.”

[3] = test system: GR trans-repression and trans-activation targets, cell cycle genes and beta cell phenotype markers; test: Q-PCR of mRNA levels in cultured beta cells; assay type: cell-based, rat; conditions: 9 days culture; 1 μM 6MP, 1 μM MIF, 0.5 μM CPA; vehicle = 1.0
rat beta cells [4] = test: Cellular insulin content, insulin release and glucose-stimulated insulin secretion of cultured beta cells; assay type: cell-based
Description: as §3

rat beta cells [5] = test: Beta cell viability / cell death (propidium iodide assay); assay type: cell-based; conditions: for Percent viable cells: LOPAC screen at 1 μM, adult rat beta cells, day 6, control medium 97
Description: as §1, with “Numbers” for “On day 1, 9 and 15 of culture, total numbers of living beta cells per well were determined by semi-automatic cell count, after Hoechst 33342 (Ho) and propidium iodide (PI) staining. Numbers”, “Each condition was also evaluated for increases in the percentage of proliferating beta cells (incorporating the thymidine-analogue 5-ethynyl-2′-deoxyuridine, EdU; 100 μmol/l).” left out
as §4
Freshly purified beta cells were cultured in control medium for 24 h prior to the addition of the LOPAC test compounds (day 1). The culture medium was refreshed on day 3 and the cells were then cultured further with 5-ethynyl-2′-deoxyuridine (EdU; 10 μM) up to day 6. […] Thus, a compound is considered a hit only if it increases the percent EdU incorporation to above three standard deviation of the plate-averaged percent EdU incorporation.

In the case of `C[C@H]1C[C@@H]2[C@H]([C@@H](O)C[C@@]3(C)[C@H]2CC[C@]3(O)C(=O)CO)[C@@]2(C)C=CC(=O)C=C12` [6MP, 6-methylprednisolone], the “final concentration of optimal potency (dose-response studies)” value (rat beta cells [1]; survival and proliferation of rat beta cells, data not shown) is reported as 1 µM, the “cells after 15-day culture compared to day 1 numbers” value (rat beta cells [2]; 10 mM glucose and MP) is reported as 152±5% and the “change of beta cell numbers between day 1 and 15” value (rat beta cells [2]; 6MP 1 μM, DEX 0.01 μM, CPA 0.5 μM) is reported as “nearly double”. The “increase in absolute number of living beta cells in culture” value (rat beta cells [2]; two-weeks culture) was “near population doubling”, the “CDK4 mRNA level (ΔΔCt values relative to basal vehicle control)” value [3] was 1.7 ± 0.2^2 and the “CXCL11 mRNA level (ΔΔCt values relative to basal vehicle control)” value [3] was 0.1 ± 0.0^3. For the same compound, the “Cyclin B1 mRNA level (ΔΔCt values relative to basal vehicle control)” value [3] was 4.7 ± 0.7^3, the “Cyclin B2 mRNA level (ΔΔCt values relative to basal vehicle control)” value [3] was 4.8 ± 0.8^3 and the “Cyclin E1 mRNA level (ΔΔCt values relative to basal vehicle control)” value [3] was 2.3 ± 0.3^3. The “CyclinD1 mRNA level (ΔΔCt values relative to basal vehicle control)” value [3] was 0.8 ± 0.1^, the “DLK1 mRNA level (ΔΔCt values relative to basal vehicle control)” value [3] was 24491 ± 5157^3 and the “FKBP4 mRNA level (ΔΔCt values relative to basal vehicle control)” value [3] was 1.2 ± 0.1^. For the same compound, the “FKBP5 mRNA level (ΔΔCt values relative to basal vehicle control)” value [3] was 15.4 ± 2.2^3, the “GDF11 mRNA level (ΔΔCt values relative to basal vehicle control)” value [3] was 3.8 ± 1.0^3 and the “ICAM1 mRNA level (ΔΔCt values relative to basal vehicle control)” value [3] was 0.1 ± 0.1^3. The “MKP1 mRNA level (ΔΔCt values relative to basal vehicle control)” value [3] was 20.7 ± 4.2^3, the “MafA mRNA level (ΔΔCt values relative to basal vehicle control)” value [3] was 0.2 ± 0.1^3 and the “MafB mRNA level (ΔΔCt values relative to basal vehicle control)” value [3] was 5.1 ± 0.9^3. For the same compound, the “NNAT mRNA level (ΔΔCt values relative to basal vehicle control)” value [3] was 7.4 ± 1.8^3, the “NPY mRNA level (ΔΔCt values relative to basal vehicle control)” value [3] was 3.8 ± 0.6^3 and the “NR3C1 mRNA level (ΔΔCt values relative to basal vehicle control)” value [3] was 1.0 ± 0.1^. For the same compound, the “Pdx1 mRNA level (ΔΔCt values relative to basal vehicle control)” value [3] was 0.5 ± 0.2^3, the “TRH mRNA level (ΔΔCt values relative to basal vehicle control)” value [3] was 5.3 ± 0.5^3 and the “Insulin Release during last 72 h of culture” value (rat beta cells [4]; 9 days, 6MP followed by 6 days, basal) was 1.6 ± 1 ng/10^3 cells/h. The “glucose-induced insulin secretion, Day 15” value (rat beta cells [4]; 9 days, 6MP followed by 6 days, basal, 2.5 mM glucose) was 24.4 ± 3.3 % of content/h, the “glucose-induced insulin secretion, Day 15” value (rat beta cells [4]; 9 days, 6MP followed by 6 days, basal, 5 mM glucose) was 34.3 ± 3.9 % of content/h and the “glucose-induced insulin secretion, Day 15” value (rat beta cells [4]; 9 days, 6MP followed by 6 days, basal, 10 mM glucose) was 46.8 ± 7.7 % of content/h. For the same compound, the “glucose-induced insulin secretion, Day 15” value (rat beta cells [4]; 9 days, 6MP followed by 6 days, basal, 20 mM glucose) was 52.1 ± 1.8 % of content/h, the “Insulin Release during last 72 h of culture” value (rat beta cells [4]; 15 days, 6MP) was 0.9 ± 0.1 ng/10^3 cells/h and the “glucose-induced insulin secretion, Day 15” value (rat beta cells [4]; 15 days, 6MP, 2.5 mM glucose) was 35.3 ± 7.4 % of content/h. The “glucose-induced insulin secretion, Day 15” value (rat beta cells [4]; 15 days, 6MP, 5 mM glucose) was 37.7 ± 4.0 % of content/h, the “glucose-induced insulin secretion, Day 15” value (rat beta cells [4]; 15 days, 6MP, 10 mM glucose) was 43.2 ± 6.8 % of content/h and the “glucose-induced insulin secretion, Day 15” value (rat beta cells [4]; 15 days, 6MP, 20 mM glucose) was 44.0 ± 4.8 % of content/h.

With `C[C@H]1C[C@H]2[C@@H]3CCC4=CC(=O)C=C[C@]4(C)[C@@]3(Cl)[C@@H](O)C[C@]2(C)[C@@]1(O)C(=O)CO` [Beclomethasone] the “Percent EdU+ cells” value (rat beta cells [1]) was 20.6%, the Z-Score (rat beta cells [1]) was 5.9 and the Percent viable cells (rat beta cells [5]) was 96%.

With `C[C@H]1C[C@H]2[C@@H]3CCC4=CC(=O)C=C[C@]4(C)[C@@]3(F)[C@@H](O)C[C@]2(C)[C@@]1(O)C(=O)CO` [Betamethasone] the “Percent EdU+ cells” value (rat beta cells [1]) was 21.1%, the Z-Score (rat beta cells [1]) was 5.5 and the Percent viable cells (rat beta cells [5]) was 95%.

For `CCCC1O[C@@H]2C[C@H]3[C@@H]4CCC5=CC(=O)C=C[C@]5(C)[C@H]4[C@@H](O)C[C@]3(C)[C@]2(C(=O)CO)O1` (stereo partly shown) [Budesonide], the “Percent EdU+ cells” value (rat beta cells [1]) was 24.9%, the Z-Score (rat beta cells [1]) was 4.1 and the Percent viable cells (rat beta cells [5]) was 97%.

For `C[C@]12CCC(=O)C=C1CC[C@@H]1[C@@H]2CC[C@@]2(C)[C@H]1CC[C@]2(O)C(=O)CO` [Cortexolone], the “Percent EdU+ cells” value (rat beta cells [1]) was 13.1%, the Z-Score (rat beta cells [1]) was 4.1 and the Percent viable cells (rat beta cells [5]) was 97%.

With `CS(=O)(=O)c1ccc([C@@H](CC2CCCC2)C(=O)Nc2nccs2)cc1` [GKA, RO-28-1675] the “effect of 15-day continuous treatment on beta cell survival” value (rat beta cells [5]; 10 mM glucose, irrespective of MP, data not shown) was “induces cytotoxicity and a net cell loss”, the “marked cytotoxicity at day 15” value (rat beta cells [5]; GKA 3 μm, beta cells from 8- and 40-week old rats, 5 mmol/l glucose, data not shown) was “not observed” and the “dead cells at day 15 (cytotoxicity)” value (rat beta cells [5]; GKA 3 μm, neonatal beta cells, 5 mmol/l glucose) was over 50%.

For `C[C@@H]1C[C@@H]([C@H](O)CC2CC(=O)NC(=O)C2)C(=O)[C@@H](C)C1` [cycloheximide], the “number of dead cells (induction of apoptosis)” value (rat beta cells [5]; within 48 h, purified rat beta cells) was “dose-dependent increase in the number of dead cells”.

Source: US20160274087A1, “SCREENING ASSAY FOR AGENTS THAT INFLUENCE BETA CELL NUMBER AND/OR PHENOTYPE” (VRIJE UNIVERSITEIT BRUSSEL, priority 2013, published 2016)
